This is an account of results in publication PMC4129416, “YLT192, a Novel, Orally Active Bioavailable Inhibitor of VEGFR2 Signaling with Potent Antiangiogenic Activity and Antitumor Efficacy in Preclinical Models” (Scientific Reports, 2014).

The test system of data set [1] is HUVEC. The experiment in a line: EdU incorporation assay, VEGF165-stimulated HUVEC. Type of data set: cell-based, human. The protocol:
The inhibition effect of YLT192 on VEGF165-stimulated HUVEC growth was examined using MTT assay.
EdU is a thymidine analogue used to label proliferating cells which can incorporate into replication DNA when cells are dividing. Cells growing in 96-well plates were treated with different concentrations of YLT192 for 24 hours, and then assayed with Cell-Light™ EdU DNA Cell Proliferation Kit according to the manufacture's instructions. Each assay was replicated 3 times.
Supplementary Figure S2. YLT192 inhibited VEGF-stimulated HUVECs proliferation in the EdU incorporation assay. The EdU-positive(red ﬂuorescent staining) cells and Hoechst staining(blue ﬂuorescent staining) cells represented proliferating and total cells, respectively(100×). Quantification was shown on the right panels. Data represent the mean ± SEM of three different experiments. Each experiment was performed in duplicate. *P<0.05, **P<0.01. […]

The conditions of data set [2]: mouse, in vivo. The protocol:
(§1) All the HCT116 model mice were sacrificed after 24 days of treatment.
During the treatment of human colorectal carcinoma HCT116 xenograft on nude mice, they were also observed every day to investigate the side effects and toxicities after YLT192's longer time administration. Finally, serum biochemistry, hematological analysis, organ coefficients and histological examinations of heart, liver, spleen, lung, and kidney were carried out after dissection. Serum chemistry and hematological analysis was carried out.
in normal tissues. After the treatment of HCT116 xenograft, heart, liver, spleen, lung
and kidney of the mice were isolated and stained with H&E (n=6 mice per group).
Scale bars represent 50μm.
(1 picture or pasted object on this page, not shown here)

The test system of data set [3] is HUVEC. The data set can be described thus: Capillary-like tube formation assay. The note with it: designed concentrations; 6 hours; Matrigel. It is filed as cell-based, human. The protocol: To elucidate the possible mechanisms of angiogenesis inhibition, tube formation ability of ECs, which is a critical step in the process of angiogenesis, was assessed in HUVEC in vitro.
The anti-angiogenesis ability of YLT192 in vitro was evaluated using capillary tube formation assay as described previously. Briefly, 96-well plate was pre-incubated with Matrigel at 37°C for 45 minutes. Then HUVECs (2 × 10^4 cells) suspended in EGM2 medium were seeded onto the Matrigel. They were treated with various concentrations of YLT192. After 6 hours incubation at 37°C, tube formation was assessed with an OLYMPUS inverted digital camera in low power fields (50×). Vandetanib served as positive control. The assay was replicated 3 times.

The next data set can be described thus: Acute toxicity test. Type of data set: in vivo. The note with it: rats. The protocol: as §1
Acute toxicity test was done to investigate the safety profiles of YLT192 on rats. Briefly, 7–8 week old female and male rats (n = 10, respectively) were orally administrated with YLT192 at 3000 mg/kg. Then clinical symptoms of the rats including mortality, body weight and gross findings were observed once daily for 14 days. On day 14, the rats were sacrificed and examined by necropsy.

For another data set, the system named is BxPC-3. The experiment in a line: Inhibition of tumor cell growth. It is filed as cell-based. To be noted: BxPC-3, human pancreatic cancer; 48 hour treatment; means ± SD, n=3. The protocol: (§2) The proliferative inhibitory ability of YLT192 on tumor cells was investigated. […] Inhibition of cell proliferation is a possible approach for cancer treatment. EdU incorporation assay was performed to investigate the anti-proliferative effects of YLT192 against U251 and HCT116 cells.
(§3) treatment with YLT192. Data are means ± SD, n=3.
(§4) cell line cell type IC50(μM) […]

For another data set, the system named is Hep G2. The data set can be described thus: Inhibition of tumor cell growth. Type of data set: cell-based. The note with it: HepG2; Hep G2, human hepatocellular carcinoma; 48 hour treatment; means ± SD, n=3. The protocol:
as §2, §3, §4

For a further data set, the system named is PANC-1. The data set can be described thus: Inhibition of tumor cell growth. Type of data set: cell-based. The note with it: PANC-1, human pancreatic cancer; 48 hour treatment; means ± SD, n=3. The protocol:
as §2, §3, §4

The next data set concerns HCT116 cells. The data set can be described thus: Western blot of apoptosis-related proteins caspase 3 and Bax. It is filed as cell-based, human. The note with it: 48 hours. The protocol:
Figure 4 Inhibitory effects of YLT192 on tumor cells. (A) YLT192 inhibited U251 and HCT116 cells proliferation. The EdU incorporation assay was conducted on U251 and HCT116 cells after treated with YLT192 for 24 hours. The EdU-positive (red fluorescent staining) cells and Hoechst staining (blue fluorescent staining) cells represented proliferating and total cells in the fluorescent images, respectively (100×). Quantification was shown on the right panels. (B) YLT192 induced apoptosis of HCT116 cells. HCT116 cells were treated with YLT192 or vehicle for 48 hours followed by flow cytometric analysis of annexin V-FITC and PI staining. The proportion of early apoptotic cells (annexin V positive) and late apoptotic cells (annexin V and PI positive cells) were shown. Typical apoptosis-related proteins caspase 3 and Bax were detected by western blot. Each has the expression of β-actin as internal control. The full size blots were shown in the Supplemental Figure S6 online. […] U251 and HCT116 cells were treated with YLT192 or vehicle for 48 hours and the expression of protein in different signaling pathways were detected by western blot with specific antibodies. […]
Supplementary Figure S7. […] HCT116 cells were treated with YLT192 or vehicle for 48 hours and then typical apoptosis-related proteins caspase 3 and Bax were detected by western blot. […]

For the compound `CNC(=O)c1cc(Oc2ccc(NC(=O)c3cccc(OC)c3)cc2)ccn1` [YLT192], in the data set on HUVEC [1], the “VEGF165-stimulated HUVEC proliferation, EdU incorporation” value is reported as “inhibited VEGF165-stimulated HUVEC proliferation”. Further, in data set [2], the “adverse effects, such as diarrhea or toxic death” value was “did not observed adverse effects”. The “microscopic examination of the heart, liver, spleen, lung, and kidney” value in data set [2] is “no pathological changes”. In the data set on HUVEC [3], the “tube formation of HUVEC” value is on record as “strongly inhibited”. Besides, the NOAEL at 14 days in “Acute toxicity test” (both sexes, rat, in vivo, single oral 3000 mg/kg, 14 days observation, read-out: No Observed Adverse Effect Level (NOAEL)) is over 3000 mg/kg. Further, the “mortality, clinical signs, and body weight” value in “Acute toxicity test” (oral 3000 mg/kg, 14 days) was “no obvious changes were observed”. The IC50 in the data set with BxPC-3 was found to be 8.2 ± 0.6 µM; with Hep G2, 7.9 ± 0.5 µM; in the data set with PANC-1, 9.8 ± 1.9 µM. Also, the “expression of pro-apoptotic Bax” value in the data set with HCT116 cells is “increased”. Further, the “pro-caspase-3 and its pro-apoptotic cleaved forms” value in the data set with HCT116 cells was “a reduction of pro-caspase-3 and an increase in levels of its pro-apoptotic cleaved forms”.
